# Earlier results, collected in patent US4916163A, “Spray-dried lactose formulation of micronized glyburide” (The Upjohn Company, priority 1985, dated 1990).
# Tested on: Type II (adult-onset) diabetes mellitus
# Conditions: in words, background
compound,measurement,value
"COc1ccc(Cl)cc1C(=O)NCCc1ccc(S(=O)(=O)NC(=O)NC2CCCCC2)cc1 [glyburide, N-[4-(β-[2-methoxy-5-chloro-benzamido]-ethyl)-benzenesulfonyl]-N'-cyclohexyl-urea]",Reduction of serum glucose concentrations,effective in reducing serum glucose concentrations
